Data from patent publication US20220064167A1, “IMIDAZO-PYRAZOLE CARBOXAMIDE DERIVATIVES AS ANTICANCER AGENTS AND THE SYNTHESIS THEREOF” (AVIDIN KFT., priority 2018, published 2022).
Entries after “also recorded” stand apart in the source; their conditions may differ.

Tests used:
[1] = test system: HeLa (human cervical carcinoma); assay: viability assay (Table 2); format: cell-based
Experimental: (§1) For viability assays cells were seeded in 96 well plates (MCF7 and 4T1: 6000, HL60: 120.000 cells/well) and incubated overnight. Compounds were dissolved in dimethyl sulfoxide (DMSO). Cells were treated with an increasing concentration of compounds having the general formula (I.) (156 nM-100 μM). Cell viability was determined after 72h incubation. Resazurin reagent (Sigma-Aldrich) was dissolved in PBS (pH 7.4) at 0.15 mg/ml concentration, sterile filtered (0.22 μm, Merck Millipore) and aliquoted at −20° C. Resazurin reagent (Sigma-Aldrich) was added at a final concentration of 25 μg/ml. After 2 hours incubation at 37° C. 5% CO2 fluorescence (530 nm excitation/580 nm emission) was recorded on a multimode microplate reader (Cytofluor4000, PerSeptive Biosytems). Viability was calculated with relation to untreated control cells and blank wells containing media without cells. IC50 values (50% inhibiting concentration) were calculated by GraphPad Prism® 5 (La Jolla, Calif., USA).
(§2) GBM2 (human glioblastoma), HeLa (human cervical carcinoma), MIA PaCa-2 (human pancreas carcinoma) and U87MG (human glioblastoma) cells were maintained in Dulbecco's Modified Eagle Medium (DMEM) 10% fetal calf serum (FCS, Gibco). A375 (human melanoma), A549 (human lung adenocarcinoma) and HEP3B (human hepatoma) cells were maintained in Dulbecco's Modified Eagle Medium/Nutrient Mixture F-12 (DMEM/F12) 10% FCS.
(§3) Media were supplemented with 2 mM GlutaMAX, and 100 U/mL penicillin, 100 μg/mL streptomycin (Life Technologies, Carlsbad, Calif., USA). Cell cultures were maintained at 37° C. in a humidified incubator in an atmosphere of 5% CO2 (Sanyo, Japan).
(§4) Viability assays were performed as described in Example 102.

[2] = test system: CD33 expression in HL-60 cells; assay: quantitative real time PCR of stem cell marker (FIG. 3A); format: cell-based, human; conditions: HL-60, 24 h after treatment, normalized to ACTB
Experimental: HL-60 cells (10×10^6) were plated in 100 mm tissue culture dishes (Corning Life Sciences) in RPMI 10% FCS. Cells were treated in 10 mL total volume with the compound described in Example 83 24 h after treatment, nucleic acid preparation was done by using the Bioneer RNA purification kit (Bioneer, Viral RNA extraction kit, Daejeon, South Korea) according to an already published protocol (Szebeni et al. 2017a). The quality and quantity of the isolated RNA were measured with NanoDrop1000 Version 3.8.1. (Thermo Fisher Scientific). Reverse transcription from 3 μg of total RNA was performed with the High-Capacity cDNA Archive Kit (Applied Biosystems, Foster City, Calif., USA) in a total volume of 30 μL according to the manufacturer's protocol. Quantitative-real time PCR was carried out using gene specific primers for CD33 (primer sequences: forward 5′ […] 3′, reverse 5′ […] 3′) and CD34, (primer sequences: forward 5′ gcgctttgcttgctgagt 3′, reverse 5′ […] 3′) using Sybr Green detection on a LightCycler Nano instrument (Roche, Hungary). Relative gene expression data was normalized to ACTB (beta actin, primer sequences: forward 5′ attggcaatgagcggttc 3′, reverse 5′ cgtggatgccacaggact 3′) expression.

[3] = test system: HTT199 human melanoma cells in SCID immune-deficient mouse; assay: melanoma mouse model (FIG. 8); format: in vivo; conditions: 3 mg/kg intravenously, 10 occasions
Experimental: The effect on melanoma was studied on SCID immune-deficient mouse model inoculated in the spleen with HTT199 human melanoma cells (ATCC) (1 million cells/animal). Two groups were formed from randomly selected mice, with 10 animals in each group. Group 1: control group, it was only administered a carrier (0.1 mL, 0.9% NaCl solution) intravenously; group 2: group treated with compound 83, it was administered 3 mg/kg of compound 83 in PEG100:Solutol:PBS (1:4:15 vol ratio), intravenously.
(§5) The treatments were performed from the third day, on five consecutive occasions per week, for 2 weeks, on a total of 10 occasions. As time went on, every day we determined the number of surviving animals and represented it in percentage per group as compared to the total initial number of animals (FIG. 8). It can be seen that the 3 mg/kg dose of compound 83 administered intravenously was effective, the treatment with compound 83 increased the LD50 (from day 33 to day 38) and the survival rate of the animals.

U937 (human lymphoma) = assay: viability assay (Table 2); format: cell-based; conditions: U-937
Experimental: as §1
(§6) HT168 (human melanoma), HT199 (human melanoma), HT29 (human colorectal adenocarcinoma), MOLT4 (human leukemia) and U937 (human lymphoma) cells were maintained in Roswell Park Memorial Institute 1640 medium (RPMI-1640) 10% FCS. SKOV-3 cells were maintained in Dulbecco's Modified Eagle Medium/McCoy's medium (DMEM/McCoy) 10% FCS.
as §3, §4

[4] = test system: SKOV-3 cells (ovarian adenocarcinoma); assay: viability assay (Table 2); format: cell-based; conditions: Homo sapiens, SK-OV-3
Experimental: as §1, §6, §3, §4

MOLT4 (human leukemia) = assay: viability assay (Table 2); format: cell-based; conditions: MOLT-4
Experimental: as §1, §6, §3, §4

CD11b on HL-60 cells = assay: flow cytometry of cell surface CD11b (FIG. 3B); format: cell-based, human; conditions: HL-60, 24, 48 and 72 h after treatment
Experimental: Experiments detecting CD11b expression by Flow cytometric immunofluorescence were done as described in Example 104 without fixation and permeabilization. Native cell surface staining was done by CD11b-FITC (Immunotools cat number 21389113), with 1:20 dilution 24, 48 and 72 h after treatment.

[5] = test system: HL60 human acute myeloid leukaemia cells in SCID immune-deficient mouse; assay: leukaemia mouse model (FIG. 7); format: in vivo; conditions: 3 mg/kg intravenously, 10 occasions
Experimental: The effect on leukaemia was studied on SCID immune-deficient mouse model inoculated intravenously with HL60 human acute myeloid leukaemia cells (ATCC) (1 million cells/animal). Two groups were formed from randomly selected mice, with 9 animals in each group. Group1: control group, it was only administered a carrier (0.1 mL, 0.9% NaCl solution) intravenously; group 2: group treated with compound 60, it was administered 3 mg/kg of compound 60 in PEG100:Solutol:PBS (1:4:15 vol ratio), intravenously.
as §5, with “7).” for “8).”, “60” for “83”, “26” for “33”, “42)” for “38)”

HEP3B (human hepatoma) = assay: viability assay (Table 2); format: cell-based
Experimental: as §1, §2, §3, §4

[6] = test system: U87MG (human glioblastoma); assay: viability assay (Table 2); format: cell-based; conditions: U-87 MG, read-out: IC50 U87
Experimental: as §1, §2, §3, §4

With `CC(C)(C)Nc1c(C(C)(C)C)[nH]c2c(C(=O)Nc3ccc(N)cc3)cnn12` [Example 83, N-(4-Aminophenyl)-2-(tert-butyl)-3-(tert-butylamino)-1H-imidazo[1,2-b]pyrazole-7-carboxamide] as the molecule, how does the IC50 [1] read?
Its IC50 is 0.1 µM.

What about the “expression of haematopoietic stem cell marker CD33” value [2] of the same molecule?
Its value is “decreased”.

And the “survival rate of the animals” value [3]?
The value was “increased”.

What about the median survival time ([3]; control day 33) of the same molecule?
The median survival time was 38 days.

And the IC50 (U937 (human lymphoma))?
The IC50 was 0.25 µM.

And the IC50 [4]?
Its IC50 is 0.15 µM.

What about the IC50 (MOLT4 (human leukemia)) of the same molecule?
The IC50 was 0.15 µM.

And the “matured myeloid cell marker CD11b on the cell surface” value (CD11b on HL-60 cells)?
The value was “elevation; also recorded: elevated”.

For `CC(C)(C)Nc1c(C(C)(C)C)[nH]c2c(C(=O)Nc3ccc(F)cc3)cnn12` [Example 60, 2-(Tert-butyl)-N-(4-fluorophenyl)-3-((tert-butyl-2-yl)amino)-1H-imidazo[1,2-b]pyrazole-7-carboxamide], which “survival rate of the animals” value [5] is on record?
The value was “increased”.

What about the median survival time ([5]; control day 26) of the same molecule?
Its median survival time is 42 days.

What about the IC50 (HEP3B (human hepatoma)) of the same molecule?
Its IC50 is 0.25 µM.

What about the IC50 [6] of the same molecule?
The IC50 was 0.25 µM.
